Some results are limits rather than exact numbers.

This assay has as its target PIK3CG (human) (UniProt P48736). Kind of assay: Inhibition of PIK3CG Kinase Activity.

PIK3CG (human), sequence (P48736 whole entry, looked up): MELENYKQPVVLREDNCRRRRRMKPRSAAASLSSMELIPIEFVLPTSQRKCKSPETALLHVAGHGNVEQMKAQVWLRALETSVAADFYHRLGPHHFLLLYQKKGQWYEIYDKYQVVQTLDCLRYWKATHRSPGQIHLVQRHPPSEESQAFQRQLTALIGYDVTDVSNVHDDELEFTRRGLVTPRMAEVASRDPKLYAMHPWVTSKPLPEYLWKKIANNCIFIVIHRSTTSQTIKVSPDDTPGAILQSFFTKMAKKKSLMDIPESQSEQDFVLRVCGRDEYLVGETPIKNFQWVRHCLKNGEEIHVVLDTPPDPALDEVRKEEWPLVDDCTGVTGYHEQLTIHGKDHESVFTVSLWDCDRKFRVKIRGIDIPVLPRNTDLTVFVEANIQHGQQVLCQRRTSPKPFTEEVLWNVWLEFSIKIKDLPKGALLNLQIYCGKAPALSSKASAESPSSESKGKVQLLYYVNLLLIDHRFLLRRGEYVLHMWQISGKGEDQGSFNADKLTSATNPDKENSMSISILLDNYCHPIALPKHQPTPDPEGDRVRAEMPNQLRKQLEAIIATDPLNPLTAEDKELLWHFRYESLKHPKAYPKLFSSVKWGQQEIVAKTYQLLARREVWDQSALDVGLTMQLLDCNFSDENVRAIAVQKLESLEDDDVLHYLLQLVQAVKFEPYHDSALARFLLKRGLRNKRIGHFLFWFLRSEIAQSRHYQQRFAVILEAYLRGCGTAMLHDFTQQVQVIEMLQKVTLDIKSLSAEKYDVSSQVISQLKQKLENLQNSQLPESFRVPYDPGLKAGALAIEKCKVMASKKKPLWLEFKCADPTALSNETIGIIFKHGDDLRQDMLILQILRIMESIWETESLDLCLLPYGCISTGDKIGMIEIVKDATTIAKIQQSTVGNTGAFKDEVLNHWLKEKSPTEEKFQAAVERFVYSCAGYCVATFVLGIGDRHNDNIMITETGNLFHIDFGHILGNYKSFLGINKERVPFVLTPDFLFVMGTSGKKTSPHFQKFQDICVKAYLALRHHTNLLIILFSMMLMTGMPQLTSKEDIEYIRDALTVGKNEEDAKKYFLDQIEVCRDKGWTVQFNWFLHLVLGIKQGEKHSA

In the case of `COc1cc(-c2cc(C)c3c(n2)CN(c2cncc(OCC(F)(F)F)c2)C3=O)cnc1OC`, the Ki is less than 100 nM.
For the compound `CCn1ccc(N2Cc3nc(-c4cncc(OC(F)F)c4)cc(C)c3C2=O)n1`, the Ki is less than 100 nM.
`Cc1cc(-c2cncc(OC(F)F)c2)cc2c1C(=O)N(c1cnn(CC(F)(F)F)c1)C2` came in with a Ki of less than 100 nM.
With `CCOc1ncc(-c2cc(C)c3c(n2)CN(c2cnn(CC)c2)C3=O)cc1OC` the figure was less than 100 nM.
Under `CCn1cc(N2Cc3cc(-c4cnc(OC)c(OC)c4)ccc3C2=O)cn1` stands less than 100 nM.
Under `COc1cc(-c2ccc3c(n2)CN(c2cnn(Cc4ccncc4)c2)C3=O)cnc1OC` stands less than 100 nM; under `CCOc1ncc(-c2cc(C)c3c(n2)CN(c2cncc(CCC#N)c2)C3=O)cc1OC`, less than 100 nM.
Take `CCOc1ncc(-c2cc(C)c3c(c2)C(C)N(c2cnn(CC(F)(F)F)c2)C3=O)cc1OC` (centres undefined): the Ki is less than 100 nM.
Under `CCc1n[nH]c(N2Cc3cc(-c4cnc(OC)c(OC)c4)ccc3C2=O)n1` stands less than 100 nM; under `COc1cc(-c2cc(C)c3c(n2)CN(c2cc(C)n(CCC4OCCCO4)n2)C3=O)cnc1OC`, less than 100 nM.
Turning to `COc1cncc(-c2cc(C)c3c(n2)[C@H](C)N(c2ccn(C[C@H](C)O)n2)C3=O)c1`, the inhibition constant (Ki) is less than 100 nM.
Take `COc1cc(-c2cc(C)c3c(n2)C(C)(C)N(c2cnn(CC(F)(F)F)c2)C3=O)cnc1C`: the Ki is less than 100 nM.
With `COc1cc(-c2cc(C)c3c(n2)CN(c2cnc(NC(C)=O)c(C)c2)C3=O)cnc1OC` the figure was less than 100 nM.
As for `COc1cc(-c2ccc3c(n2)[C@@H](C)N(c2cnn(CC#N)c2)C3=O)cnc1OC`, the Ki was less than 100 nM.
For `COc1cc(-c2cc(C)c3c(n2)C(C(C)C)N(c2cnn(CC(F)(F)F)c2)C3=O)cnc1OC` (centres undefined), the Ki was less than 100 nM.
Under `COc1cc(-c2cc(C)c3c(n2)CN(c2cnn(CC(F)(F)F)c2)C3=O)cnc1C` stands less than 100 nM; under `Cc1cc(-c2cncc(CO)c2)cc2c1C(=O)N(c1cnn(CC(F)(F)F)c1)C2C` (centres undefined), less than 100 nM; under `Cc1cc(-c2cncc(OCC(F)F)c2)nc2c1C(=O)N(c1cnn(CC(F)(F)F)c1)[C@@H]2C`, less than 100 nM.
As for `CCn1ccc(N2C(=O)c3c(C)cc(-c4cncc(OCC(F)F)c4)nc3[C@@H]2C)n1`, the Ki lay in the range of 100 to 490 nM.
With `COc1cc(-c2ccc3c(c2)CN(c2cnn(CC(F)(F)F)c2)C3=O)cnc1OC` the figure was less than 100 nM.
With `Cc1cc(-c2cncc(OC(C)C)c2)nc2c1C(=O)N(c1cnn(CC(F)(F)F)c1)C2` the figure was less than 100 nM; with `COc1cc(-c2ccc3c(n2)CN(c2ccc(=O)n(C)c2)C3=O)cnc1OC`, 100 to 490 nM.
`COc1cc(-c2cc(C)c3c(n2)CN(c2ccn([C@@H]4CCOC4)n2)C3=O)cnc1F` displayed a Ki of less than 100 nM.
`CCn1nc(N2Cc3nc(-c4cnc(OC)c(OC)c4)ccc3C2=O)cc1COC` registered a Ki of less than 100 nM.
Under `COc1cc(-c2cc(Cl)c3c(n2)CN(c2cnn(CC(F)(F)F)c2)C3=O)cnc1OC` stands less than 100 nM; under `CCn1ncc(N2Cc3nc(-c4cnc(OC)c(OC)c4)cc(C)c3C2=O)n1`, less than 100 nM; under `Cc1cc(-c2cncc(OC(F)F)c2)nc2c1C(=O)N(c1cncc(C(C)(C)C#N)c1)C2`, less than 100 nM.
`CCn1cc(N2C(=O)c3ccc(-c4cnc(OC)c(OC)c4)nc3[C@@H]2C)cn1` came in with a Ki of less than 100 nM.
With `CCn1cc(N2Cc3nc(-c4cncc(OCC(F)(F)F)c4)cc(C)c3C2=O)cn1` the figure was less than 100 nM.
In turn, `CCOc1cncc(-c2cc(C)c3c(n2)[C@H](C)N(c2cnn(CC(F)(F)F)c2)C3=O)c1` gave a Ki of less than 100 nM.
Under `COc1cc(-c2cc(C)c3c(n2)[C@@H](C)N(c2cnn(CC(F)(F)F)c2)C3=O)cnc1C` stands less than 100 nM; under `Cc1cc(-c2cncc(S(=O)(=O)N(C)C)c2)nc2c1C(=O)N(c1cnn(CC(F)(F)F)c1)C2(C)C`, less than 100 nM; under `COc1cc(-c2cc(Cl)c3c(c2)CN(c2cnn(CC#N)c2)C3=O)cnc1OC`, less than 100 nM.
Under `COc1cc(-c2ccc3c(n2)[C@@H](C)N(c2cccc(C(C)(C)C#N)n2)C3=O)cnc1OC` stands less than 100 nM; under `COc1cc(-c2ccc3c(n2)CN(c2cccc(C(C)(C)C#N)n2)C3=O)cnc1OC`, less than 100 nM; under `COc1cc(-c2cc3c(c(C)n2)C(=O)N(c2cnn(CC(F)(F)F)c2)C3C)cnc1OC` (centres undefined), less than 100 nM.
With `COc1cc(-c2ccc3c(n2)[C@@H](C)N(c2ccn(CC(C)(C)F)n2)C3=O)cnc1OC` the figure was less than 100 nM; with `COc1cc(-c2ccc3c(c2)CN(c2nncs2)C3=O)cnc1OC`, 100 to 490 nM.
As for `COc1ncc(-c2cc(C)c3c(n2)CN(c2cnn(C(C)(C)C#N)c2)C3=O)cc1OCC(F)(F)F`, the Ki is less than 100 nM.
Under `CCOc1cncc(-c2cc(C)c3c(n2)C2(CCOC2)N(c2cnn(CC(F)(F)F)c2)C3=O)c1` (centres undefined) stands less than 100 nM.
Compound `CCCOc1cc(-c2cc(C)c3c(n2)CN(c2cn[nH]c2)C3=O)cnc1OC` showed an inhibitory constant (Ki) of less than 100 nM.
With `Cc1cc(-c2cncc(OCC(F)F)c2)nc2c1C(=O)N(c1cnn(CC#N)c1)C2(C)C` the figure was less than 100 nM; with `Cc1cc(-c2cncc(C(F)(F)F)c2)nc2c1C(=O)N(c1cnn(CC#N)c1)C2`, less than 100 nM.
Under `COc1ncc(-c2cc(C)c3c(n2)C(C)N(c2cnn(CC(F)F)c2)C3=O)cc1C(=O)NCC(F)F` (centres undefined) stands less than 100 nM.
In turn, `Cc1cc(-c2cncc(OCC(F)(F)F)c2)nc2c1C(=O)N(c1cnn(CC(F)(F)F)c1)C2(C)C` displayed a Ki of less than 100 nM.
With `COc1cc(-c2ccc3c(n2)CN(c2cnn(CCn4nccc4C)c2)C3=O)cnc1OC` the figure was 100 to 490 nM.
With `COc1ncc(-c2cc(C)c3c(n2)C(C)N(c2cnn(CC(F)(F)F)c2)C3=O)cc1OC(F)F` (centres undefined) the figure was less than 100 nM; with `COc1cc(-c2ccc3c(n2)CN(c2cnn(C(C)C#N)c2)C3=O)cnc1OC` (centres undefined), less than 100 nM.
Consider `COc1cc(-c2cc(C)c3c(n2)CN(c2cccc(C4(C#N)CC4)c2)C3=O)cnc1OC`, for which the Ki is less than 100 nM.
Under `COc1cc(-c2ccc3c(n2)CN(c2cnn(CC(O)CF)c2)C3=O)cnc1OC` (centres undefined) stands less than 100 nM; under `Cc1cc(-c2cncc(C(=O)NC(C)C)c2)nc2c1C(=O)N(c1cnn(CC(F)(F)F)c1)C2C` (centres undefined), less than 100 nM.
With `CCc1cc(N2Cc3nc(-c4cnc(OC)c(OC)c4)cc(C)c3C2=O)nn1C` the figure was less than 100 nM; with `Cc1cc(-c2cncc(OC(F)F)c2)nc2c1C(=O)N(c1cnn(C)c1)C2C` (centres undefined), less than 100 nM.
Under `COc1cc(-c2ccc3c(n2)[C@H](C)N(c2cnn(CC(C)(C)O)c2)C3=O)cnc1OC` stands less than 100 nM; under `COc1cc(-c2ccc3c(n2)[C@@H](C)N(c2ccnc(CC#N)c2)C3=O)cnc1OC`, less than 100 nM.
As to `CCOc1ncc(-c2cc(C)c3c(n2)[C@]2(CCCO2)N(c2cnn(CC(F)(F)F)c2)C3=O)cc1OC`, the Ki is less than 100 nM.
With `COc1cc(-c2cc(C)c3c(n2)CN(c2cc(C)n(Cc4ccccn4)n2)C3=O)cnc1OC` the figure was less than 100 nM; with `COc1cc(-c2cc(C)c3c(n2)C(O[C@H]2CCOC2)N(c2cnn(CC(F)(F)F)c2)C3=O)cnc1OC` (some centres undefined), less than 100 nM.
With `Cc1cc(-c2cncc(OCC(F)(F)F)c2)nc2c1C(=O)N(c1cnn(CC#N)c1)C2(C)C` the figure was less than 100 nM; with `COc1cc(-c2cc(C)c3c(n2)CN(c2cnn(CC(F)(F)F)c2)C3=O)cnc1O`, less than 100 nM.
`COc1ncc(-c2ccc3c(n2)CN(c2ccn(C)n2)C3=O)cc1OC(F)F` came in with a Ki of less than 100 nM.
With `Cc1cc(-c2cnc(C)c(OCC(F)(F)F)c2)nc2c1C(=O)N(c1ccn([C@H]3CCOC3)n1)C2` the figure was less than 100 nM; with `N#CCn1cc(N2Cc3cc(-c4cncc(S(N)(=O)=O)c4)ccc3C2=O)cn1`, less than 100 nM; with `COc1cc(-c2ccc3c(n2)CN(c2cnn(CC#N)c2)C3=O)cnc1OC`, less than 100 nM.
For `COc1ncc(-c2cc(C)c3c(n2)C(C)(C)N(c2cnn(CC(F)(F)F)c2)C3=O)cc1C(=O)NC(C)(C)C`, the Ki is less than 100 nM.
Under `COc1ncc(-c2ccc3c(n2)[C@H](C)N(c2cnn(CC(F)(F)F)c2)C3=O)cc1O` stands less than 100 nM; under `COc1cc(-c2cc(C)c3c(n2)CN(c2cncc(CO)c2)C3=O)cnc1OC`, less than 100 nM; under `COc1cc(-c2ccc3c(n2)CN(c2cnn(CC(N)=O)c2)C3=O)cnc1OC`, less than 100 nM.
On to `COc1cc(-c2ccc3c(n2)CN(c2cnn(C(F)(F)C#N)c2)C3=O)cnc1OC`, for which the inhibition constant Ki is less than 100 nM.
`COc1cc(-c2ccc3c(n2)CN(c2cnn(CC(F)(F)F)c2)C3=O)cnc1OC(F)F` had a Ki of 100 to 490 nM.
In the case of `Cc1cc(-c2cncc(OC(F)F)c2)nc2c1C(=O)N(c1cn[nH]c1)C2`, the inhibition constant Ki was less than 100 nM.
Under `COc1cc(-c2cc(C)c3c(n2)C(OC(C)C)N(c2cnn(CC(F)(F)F)c2)C3=O)cnc1OC` (centres undefined) stands less than 100 nM.
Compound `COc1cncc(-c2cc(C)c3c(n2)[C@@H](C)N(c2cnn(CC(F)(F)F)c2)C3=O)c1` yielded a Ki of less than 100 nM.
With `CCO[C@]1(C)c2nc(-c3cnc(OC)c(OC)c3)cc(C)c2C(=O)N1c1cnn(CC(F)(F)F)c1` the figure was less than 100 nM; with `COc1ccc(-c2cc(C)c3c(n2)CN(c2cnn(CC#N)c2)C3=O)c(OC)n1`, less than 100 nM; with `COc1ncc(-c2cc(C)c3c(n2)C(C)(C)N(c2cnn(CC(F)(F)F)c2)C3=O)cc1C(=O)NC1CC1`, less than 100 nM.
The compound `Cc1cc(-c2cccnc2NC(=O)C(C)(C)C)nc2c1C(=O)N(c1cnn(CC(F)(F)F)c1)C2` gave a Ki of less than 100 nM.
Under `CCOCCCOc1ncc(-c2cc(C)c3c(n2)CN(c2cnn(CC(F)(F)F)c2)C3=O)cc1OC` stands 100 to 490 nM.
Under `COCCCOc1cc(-c2cc(C)c3c(n2)CN(c2cnn(CC(F)(F)F)c2)C3=O)cnc1OC` stands less than 100 nM.
Regarding `COc1ccc(-c2cc(C)c3c(n2)CN(c2cnn(CC#N)c2)C3=O)cc1OC`, the Ki is less than 100 nM.
With `COc1cc(-c2ccc3c(n2)CN(c2ccc(N4CCNCC4)nc2)C3=O)cnc1OC` the figure was 100 to 490 nM; with `Cc1cc(-c2cncc(NC(=O)C(C)(C)C)c2)nc2c1C(=O)N(c1cnn(CC(F)(F)F)c1)C2(C)C`, 100 to 490 nM; with `COc1cc(-c2ccc3c(n2)CN(c2ccn(CC#N)n2)C3=O)cnc1OC`, less than 100 nM.
Under `COc1cc(-c2cc(C)c3c(n2)CN(c2cncnc2)C3=O)cnc1OC` stands less than 100 nM.

As usually defined, the Ki is a measure of affinity in units of concentration, obtained from inhibition or displacement.

The values are drawn from the Kinase Knowledgebase extract (Sharma et al. 2016).
